Measured values as given in patent US20240382629A1, “HETEROBIVALENT AND HOMOBIVALENT AGENTS TARGETING FIBROBLAST ACTIVATION PROTEIN ALPHA AND/OR PROSTATE-SPECIFIC MEMBRANE ANTIGEN” (The Johns Hopkins University, priority 2021, published 2024).
Where “and” joins values, the source holds several entries; their conditions need not be identical. Equal values may be shown once.

Assay: Biodistribution of [^18F]JHU122047 with UAMC-01110 blocker
Type: in vivo, mouse
[1] = + Blocker UAMC-01110, 1 hr post injection, mean
[2] = + Vehicle, 1 hr post injection, mean
[3] = individual mouse, NOD/SCID, 120 min
[4] = individual mouse, NUDE, 120 min
[5] = mean (one sample; gamma counter error), NOD/SCID, 120 min

N#C[C@@H]1CCCN1C(=O)CNC(=O)c1ccnc2ccc(OCCF)cc12 [[^18F]JHU122047]
% ID/g Mean Bladder [1]: 2.10 % ID/g | % ID/g Mean Bladder [2]: 1.13 % ID/g | % ID/g Mean Blood (Blood, + Blocker UAMC-01110, 1 hr post injection, mean): 0.12 % ID/g | % ID/g Mean Blood (Blood, + Vehicle, 1 hr post injection, mean): 0.36 % ID/g | % ID/g Blood (Blood, + Vehicle, 1 hr post injection, single mouse): 0.38 % ID/g and 0.34 % ID/g | % ID/g Mean Brain [1]: 0.19 % ID/g | % ID/g Mean Brain [2]: 0.14 % ID/g | % ID/g Mean Fat [1]: 0.08 % ID/g | % ID/g Mean Fat [2]: 0.11 % ID/g | % ID/g Mean Heart (Heart, + Blocker UAMC-01110, 1 hr post injection, mean): 0.38 % ID/g | % ID/g Mean Heart (Heart, + Vehicle, 1 hr post injection, mean): 0.35 % ID/g | % ID/g Heart (Heart, + Vehicle, 1 hr post injection, single mouse): 0.35 % ID/g | % ID/g Mean Kidney [1]: 0.60 % ID/g | % ID/g Mean Kidney [2]: 1.25 % ID/g | % ID/g Mean Large intestine [1]: 2.19 % ID/g | % ID/g Mean Large intestine [2]: 0.99 % ID/g | % ID/g Mean Liver (Liver, + Blocker UAMC-01110, 1 hr post injection, mean): 0.66 % ID/g | % ID/g Mean Liver (Liver, + Vehicle, 1 hr post injection, mean): 0.68 % ID/g | % ID/g Liver (Liver, + Vehicle, 1 hr post injection, single mouse): 0.67 % ID/g | % ID/g Mean Lung (Lung, + Blocker UAMC-01110, 1 hr post injection, mean): 0.33 % ID/g | % ID/g Mean Lung (Lung, + Vehicle, 1 hr post injection, mean): 0.36 % ID/g | % ID/g Lung (Lung, + Vehicle, 1 hr post injection, single mouse): 0.34 % ID/g and 0.37 % ID/g | % ID/g Mean Muscle [1]: 0.27 % ID/g | % ID/g Mean Muscle [2]: 0.34 % ID/g | % ID/g Mean Pancreas [1]: 0.23 % ID/g | % ID/g Mean Pancreas [2]: 0.33 % ID/g | % ID/g Mean Salivary gland [1]: 0.28 % ID/g | % ID/g Mean Salivary gland [2]: 0.58 % ID/g | % ID/g Mean Small intestine [1]: 8.53 % ID/g | % ID/g Mean Small intestine [2]: 2.48 % ID/g | % ID/g Mean Spleen [1]: 0.28 % ID/g | % ID/g Mean Spleen [2]: 0.26 % ID/g | % ID/g Mean Stomach [1]: 0.50 % ID/g | % ID/g Mean Stomach [2]: 0.32 % ID/g | % ID/g Mean Tumor [1]: 0.45 % ID/g | % ID/g Mean Tumor [2]: 1.96 % ID/g | Bladder % ID/g (individual mouse): 12.70 % ID/g and 11.31 % ID/g | Brain % ID/g (individual mouse): 0.02 % ID/g and 0.08 % ID/g | Fat % ID/g (individual mouse): 0.07 % ID/g and 0.10 % ID/g | Femur % ID/g (individual mouse): 0.87 % ID/g and 0.43 % ID/g | Kidney % ID/g (individual mouse): 1.61 % ID/g and 1.54 % ID/g | Large intestine % ID/g (individual mouse): 0.18 % ID/g and 0.19 % ID/g | Liver % ID/g (individual mouse): 1.74 % ID/g and 1.65 % ID/g | Muscle % ID/g (individual mouse): 0.07 % ID/g and 0.12 % ID/g | Pancreas % ID/g (individual mouse): 0.07 % ID/g and 0.19 % ID/g | Salivary gland % ID/g (individual mouse): 0.12 % ID/g and 0.14 % ID/g | Small intestine % ID/g (individual mouse): 0.48 % ID/g and 0.45 % ID/g | Spleen % ID/g (individual mouse): 0.10 % ID/g and 0.15 % ID/g | Stomach % ID/g (individual mouse): 0.18 % ID/g and 0.17 % ID/g | Tumor % ID/g (individual mouse): 0.21 % ID/g and 0.23 % ID/g | Bladder % ID/g [3]: 3.86 % ID/g | Blood % ID/g [3]: 0.40 % ID/g and 0.47 % ID/g | Brain % ID/g [3]: 0.04 % ID/g | Fat % ID/g [3]: 0.09 % ID/g and 0.18 % ID/g | Femur % ID/g [3]: 1.59 % ID/g | Heart % ID/g [3]: 0.20 % ID/g and 0.29 % ID/g | Kidney % ID/g [3]: 1.51 % ID/g and 1.58 % ID/g | Large intestine % ID/g [3]: 0.30 % ID/g and 0.45 % ID/g | Liver % ID/g [3]: 1.11 % ID/g and 0.88 % ID/g | Lung % ID/g [3]: 0.36 % ID/g and 0.57 % ID/g | Muscle % ID/g [3]: 0.25 % ID/g and 0.35 % ID/g | Pancreas % ID/g [3]: 0.38 % ID/g and 0.77 % ID/g | Salivary gland % ID/g [3]: 0.74 % ID/g and 0.62 % ID/g | Small intestine % ID/g [3]: 0.38 % ID/g and 0.95 % ID/g | Spleen % ID/g [3]: 0.26 % ID/g and 0.36 % ID/g | Stomach % ID/g [3]: 0.22 % ID/g and 0.35 % ID/g | Tumor % ID/g [3]: 3.13 % ID/g | Bladder % ID/g [4]: 1.31 % ID/g and 1.80 % ID/g | Blood % ID/g [4]: 0.66 % ID/g and 0.56 % ID/g | Brain % ID/g [4]: 0.05 % ID/g and 0.06 % ID/g | Fat % ID/g [4]: 0.13 % ID/g and 0.10 % ID/g | Femur % ID/g [4]: 2.27 % ID/g and 2.55 % ID/g | Heart % ID/g [4]: 0.34 % ID/g and 0.28 % ID/g | Kidney % ID/g [4]: 1.50 % ID/g and 1.43 % ID/g | Large intestine % ID/g [4]: 0.34 % ID/g and 0.41 % ID/g | Liver % ID/g [4]: 0.45 % ID/g and 0.42 % ID/g | Lung % ID/g [4]: 0.49 % ID/g and 0.56 % ID/g | Muscle % ID/g [4]: 0.49 % ID/g and 0.45 % ID/g | Pancreas % ID/g [4]: 0.53 % ID/g and 0.34 % ID/g | Salivary gland % ID/g [4]: 1.02 % ID/g and 0.78 % ID/g | Small intestine % ID/g [4]: 0.35 % ID/g and 0.31 % ID/g | Spleen % ID/g [4]: 0.22 % ID/g | Stomach % ID/g [4]: 0.27 % ID/g and 0.25 % ID/g | Tumor % ID/g [4]: 2.65 % ID/g and 3.51 % ID/g | Bladder % ID/g (mean): 12.01 % ID/g | Brain % ID/g (mean): 0.02 % ID/g | Fat % ID/g (mean): 0.08 % ID/g | Femur % ID/g (mean): 0.40 % ID/g | Kidney % ID/g (mean): 1.57 % ID/g | Large intestine % ID/g (mean): 0.18 % ID/g | Liver % ID/g (mean): 1.70 % ID/g | Lung % ID/g (mean): 0.38 % ID/g | Muscle % ID/g (mean): 0.09 % ID/g | Pancreas % ID/g (mean): 0.10 % ID/g | Salivary gland % ID/g (mean): 0.13 % ID/g | Small intestine % ID/g (mean): 0.47 % ID/g | Spleen % ID/g (mean): 0.13 % ID/g | Stomach % ID/g (mean): 0.17 % ID/g | Tumor % ID/g (mean): 0.22 % ID/g | Bladder % ID/g [5]: 3.86 % ID/g | Femur % ID/g [5]: 1.59 % ID/g | Tumor % ID/g [5]: 3.13 % ID/g | Blood % ID/g (mean, NOD/SCID, 120 min): 0.43 % ID/g | Brain % ID/g (mean, NOD/SCID, 120 min): 0.04 % ID/g | Fat % ID/g (mean, NOD/SCID, 120 min): 0.11 % ID/g | Heart % ID/g (mean, NOD/SCID, 120 min): 0.24 % ID/g | Kidney % ID/g (mean, NOD/SCID, 120 min): 1.55 % ID/g | Large intestine % ID/g (mean, NOD/SCID, 120 min): 0.37 % ID/g | Liver % ID/g (mean, NOD/SCID, 120 min): 1.00 % ID/g | Lung % ID/g (mean, NOD/SCID, 120 min): 0.47 % ID/g | Muscle % ID/g (mean, NOD/SCID, 120 min): 0.30 % ID/g | Pancreas % ID/g (mean, NOD/SCID, 120 min): 0.57 % ID/g | Salivary gland % ID/g (mean, NOD/SCID, 120 min): 0.58 % ID/g | Small intestine % ID/g (mean, NOD/SCID, 120 min): 0.67 % ID/g | Spleen % ID/g (mean, NOD/SCID, 120 min): 0.31 % ID/g | Stomach % ID/g (mean, NOD/SCID, 120 min): 0.28 % ID/g | Bladder % ID/g (mean, NUDE, 120 min): 1.55 % ID/g | Blood % ID/g (mean, NUDE, 120 min): 0.61 % ID/g | Brain % ID/g (mean, NUDE, 120 min): 0.06 % ID/g | Fat % ID/g (mean, NUDE, 120 min): 0.12 % ID/g | Femur % ID/g (mean, NUDE, 120 min): 2.41 % ID/g | Heart % ID/g (mean, NUDE, 120 min): 0.31 % ID/g | Kidney % ID/g (mean, NUDE, 120 min): 1.46 % ID/g | Large intestine % ID/g (mean, NUDE, 120 min): 0.37 % ID/g | Liver % ID/g (mean, NUDE, 120 min): 0.44 % ID/g | Lung % ID/g (mean, NUDE, 120 min): 0.53 % ID/g | Muscle % ID/g (mean, NUDE, 120 min): 0.47 % ID/g | Pancreas % ID/g (mean, NUDE, 120 min): 0.43 % ID/g | Salivary gland % ID/g (mean, NUDE, 120 min): 0.90 % ID/g | Small intestine % ID/g (mean, NUDE, 120 min): 0.33 % ID/g | Spleen % ID/g (mean, NUDE, 120 min): 0.22 % ID/g | Stomach % ID/g (mean, NUDE, 120 min): 0.26 % ID/g | Tumor % ID/g (mean, NUDE, 120 min): 3.08 % ID/g
